Results published in patent publication US20260216205A1, “SYSTEMS AND METHODS FOR TREATING HEART FAILURE WITH PRESERVED EJECTION FRACTION” (INVIVOSCIENCES INC., priority 2023, published 2026).
Entries after “also recorded” stand apart in the source; their conditions may differ.

Tests used:
[1] = tested on: alpha-1 adrenoceptors; details: read-out: IC50, affinity for alpha-1 adrenoceptors; cited from earlier work
[2] = tested on: human micro-heart tissues (NuHeart); assay: Mature NuHeart micro-heart tissue with and without TGFβ: length-tension, contractile force, ISO response, αSM actin; assay type: cell-based
Description: FIG. 11C-11F graphically show length-tension relationships of cardiac systolic ([…]) and diastolic (FIG. 10E, FIG. 10F) curves, monitored>30 days with and without TGFβ (10 ng/mL).
FIG. 11G is a bar graph illustrating that the positive inotropic response to ISO ([…]) were compared with and without TGFβ (bars=s.d., n=7) at the end of 35-day tissue development.
FIG. 11I-11J show profiles of cardiac contractile force with and without TGFβ.
A semi-automated, multi-point quality control (QC) production-process fabricated mature micro-heart tissues in 96-well format. The patient-derived (or gene-edited) iPSCs that were passed the QC test of pluripotency and purity go through the next step. This robust protocol of iPSC differentiation produced cardiomyocytes and non-muscle cells. Various parameters were optimized to produce highly purified (>95%) cardiomyocytes and cardiac non-muscle cells. Various differentiation techniques, a culture robot ACTRO™, and culture media may be used for cardiomyocyte (CM) differentiation and maintenance development and validation. FIGS. 9A-9D show mass-produced micro-heart tissues and their mature phenotype, which were assessed for their response to various positive inotropic and chronotropic agents (FIGS. 10A-10D). To grow mature micro-heart tissue, physiological (15% strain=~2.13 μm sarcomere length) stretching cycles were applied, in addition to constant bi-phasic, low energy (5-10 V, 1 ms duration) electrical stimulation, and maturation medium containing appropriate concentrations and combinations of fatty acids and other factors, including triiodothyronine, dexamethasone, taurine, creatine, and L-carnitine were used.
Human micro-heart tissues cultured for 35 days with electrical stimulation matured and loose its spontaneous beating. Myocardial fibrosis is more prevalent in HFpEF than in control, and Transforming growth factor beta (TGFβ) is a major profibrotic factor. […] The elevated diastolic stiffness and loss of contractile reserve are common in HFpEF patients. Some HFpEF patients, including hypertrophic cardiomyopathy, show a hypercontractile phenotype. A TGF-β signaling pathway in the pathogenesis of diabetes mellitus (DM) is well-known. Moreover, in rat models, the presence of diabetes led to the induction of a fetal gene program, typically seen in the setting of TGF-β over-expression and hypertrophy. Therefore, human induced pluripotent stem cell (iPSC) derived micro-heart tissue (NuHeart™ micro-heart tissue) will be used with TGFβ-treatment as a base of the proposed studies.
A force probe stretching approach was used to record the length-tension relationship to analyze cardiac contractility and stiffness of micro-heart tissue. Micro force-transducers (FIG. 11) of the mechanical assay device, Palpator™, measured resistance forces that were required to stretch micro-heart tissue growing in 96-well plates. As the probe moved down by a motorized arm, samples' cardiac contractile and baseline forces were measured at different tissue lengths. Sarcomere length was calibrated to strain (% of stretch over original sample length) according to a published protocol (Asnes, C. F. et al. Biophys. J. 2006. 91(5): pp. […]). (Fourier analysis of sarcomere patterns in fixed micro-heart tissue). In addition, other biological indicators such as calcium transients and action potential are measured using biological indicator dyes and high throughput microplate readers (FIGS. 13A-C). For example, micro-heart tissue with cardiomyocytes derived from gene-edited iPSC-derived cardiomyocytes was fabricated with a cardiac troponin T R92Q mutation (familial hypertrophic cardiomyopathy, i.e., “[…]”).

[3] = tested on: human micro-heart tissues (iPSC-derived cardiomyocytes and non-muscle cells, mainly fibroblasts); assay: Biomechanical assay (length-tension) on micro-heart tissue constructs; assay type: cell-based; details: for micro-heart tissue construct's stiffness (diastolic/passive stiffness): FIG. 7B
Excerpt: The micro-heart tissue fabrication process produced micro-heart tissues using human cardiomyocytes derived from induced pluripotent stem cells (iPSCs) and non-muscle cells, mainly fibroblasts. Therefore, fasudil is a promising drug candidate to reduce elevated diastolic stiffness of patients with heart failure with preserved ejection fraction (HFpEF). The development of fibrosis in the heart is observed in various types of cardiomyopathies, and heart failure (HF). Myocardial interstitial fibrosis, for example, contributes to left ventricular dysfunction leading to the development of heart failure. Fibrotic myocardium becomes stiffer than healthy tissue to develop diastolic dysfunction. Fasudil targets Rho-kinase (ROCK) that regulates the activity of non-muscle myosin independent of calcium homeostasis. Human cardiac fibroblasts express ROCK1 and ROCK2, which both regulate non-muscle cell contractility similarly. The reduction of ROCK2 had notable effects on the profibrotic gene (FIGS. 7A-B) and protein expression (FIGS. 7A-B).
A force probe stretching approach was used to record the length-tension relationship to analyze cardiac contractility and stiffness of micro-heart tissue. Micro force-transducers (FIG. 11) of the mechanical assay device, Palpator™, measured resistance forces that were required to stretch micro-heart tissue growing in 96-well plates. As the probe moved down by a motorized arm, samples' cardiac contractile and baseline forces were measured at different tissue lengths. Sarcomere length was calibrated to strain (% of stretch over original sample length) according to a published protocol (Asnes, C. F. et al. Biophys. J. 2006. 91(5): pp. 1800-1180). (Fourier analysis of sarcomere patterns in fixed micro-heart tissue). In addition, other biological indicators such as calcium transients and action potential are measured using biological indicator dyes and high throughput microplate readers (FIGS. 13A-C). […]

[4] = tested on: tissue constructs reconstituted with human fibroblasts / myofibroblasts; assay: Biomechanical phenotyping assay: isometric force on stretched bioengineered tissue constructs; assay type: cell-based
Excerpt: Fasudil (FIG. 1) is a small molecule inhibitor of Rho-kinase (ROCK) that regulates its downstream signal transduction pathways and biological activities, including smooth muscle cells' contractility. InvivoSciences's biomechanical phenotyping assay recorded isometric force by stretching bioengineered tissue-constructs (see, U.S. Pat. No. 10,732,174). The tissue constructs were reconstituted with human fibroblasts that recapitulate connective tissues. Those tissue constructs reconstituted with myofibroblasts recapitulate connective tissue developing fibrosis.

[5] = tested on: engineered heart tissues (EHTs) derived from human induced pluripotent stem cells; assay: Long-term fasudil effects on engineered heart tissues (EHTs) with and without TGFβ, stress versus strain; assay type: cell-based
Description: FIGS. 16A-16D graphically illustrate the long-term effects of fasudil. The rates of stretch relative to the unstretched tissue length are depicted as strain (error bar=standard deviation of error). Number of samples are 2 or 4 in each condition.
To exemplify this patient stratification process, engineered heart tissues (EHTs) were prepared, the tissues containing cardiac fibroblasts (10% of cardiomyocytes at fabrication) derived from human induced pluripotent stem cells (iPSCs). Five days post-fabrication, one half of the engineered heart tissues (EHTs) was cultured regularly (FIG. 16A and FIG. 16C), and the other half was treated with 1 ng/mL TGFβ (FIG. 16B and FIG. 16D). […] The effect was clearly represented in the elevated passive stress-strain curve and its slope represented by the closed circles (0 μM fasudil data points) in FIG. 16C and FIG. 16D.
After 15 days, the EHTs, both with and without TGFβ treatment, were administered fasudil at concentrations of […] (FIGS. 16A-16D). […] However, by day 29, fasudil reduced cardiac contractility in EHTs, irrespective of TGFβ treatment.

[6] = intravenous formulations; Satoh et al., Life Sci 2001; cited from earlier work
[7] = tested on: engineered heart tissues (EHTs) derived from human induced pluripotent stem cells; assay: Long-term fasudil effects on engineered heart tissues (EHTs) with and without TGFβ, stress versus strain; assay type: cell-based; details: short-term administration (less than 24 hours)
[8] = NuHeart micro-heart tissue without TGFβ
[9] = long-term administration (3-14 days)
[10] = TGFβ-treated micro-heart (10 ng/mL, monitored >30 days)

CN1CCN(C2=Nc3cc(F)ccc3Cc3ccccc32)CC1 [Fluperlapine]
IC50 [1]: ~10 nM

CC(C)NCC(O)c1ccc(O)c(O)c1 (stereo not shown) [ISO, isoproterenol]
contractile amplitude [2, 8]: increased
duration of contraction (chrotropic response) [2, 8]: shortened
response of mature micro-heart tissues ([2]; after isoproterenol (ISO) treatment): positive inotropic and chronotropic responses
response of contractile force to ISO ([2]; micro-heart tissue with TGFβ): blunted response

O=S(=O)(c1cccc2cnccc12)N1CCCNCC1 [fasudil, Fasudil]
cardiac contractility of the micro-heart tissues ([3]; FIG. 7A): did not change
micro-heart tissue construct's stiffness (diastolic/passive stiffness) [3]: reduced the micro-heart tissue construct's stiffness dose-dependently
micro-heart tissue construct's stiffness (diastolic/passive stiffness) ([3]; listed as Fasudil): reduced
contractility of tissue constructs [4]: reduced
tissue stiffness of tissue constructs [4]: reduced
cardiac contractility in TGFβ-treated EHTs ([5]; 10 μM fasudil, by day 29): substantially reduce
effect on passive stiffness, TGFβ-treated tissues versus untreated ([5]; TGFβ-treated (1 ng/mL) EHTs): more pronounced effect
passive stiffness of EHTs ([5]; both with and without TGFβ (1 ng/mL) treatment, fasudil 1, 3, 10 µM): effectively reduced
cardiac contractility in EHTs ([5]; by day 29, irrespective of TGFβ treatment): reduced
cardiac contractility in EHTs [5, 9]: reduce
passive stiffness in EHTs [5, 9]: reduce
impact on cardiac contractility ([5]; one day after treatment (data not shown)): less significant
plasma concentration [6]: approximately 0.36 μM
cardiac contractility in EHTs [7]: without significantly affecting
passive stiffness in EHTs [7]: effectively reduced

Transforming growth factor beta [TGFβ]
passive stiffness of EHTs ([5]; 1 ng/mL TGFβ from five days post-fabrication, 0 μM fasudil): increased
αSM actin expression ([2]; TGFβ treated sample, Western blot): increased expression; also recorded: elevated
cardiac contractility of micro-heart [2, 10]: increasing
diastolic stress (stiffening) of micro-heart [2, 10]: increasing
ISO-induced positive inotropic and chronotropic responses ([2]; chronic TGFβ treatment): impaired
